Active and inactive are the calls of the source. The rule behind the calls is not given here.

What all share (format): functional
For test [1], the system named is Enterobacteria phage lambda. The experiment in a line: Induction of lambda phage production in Escherichia coli W1709 (lambda) assessed as plaque formation up to 50 ug/ml preincubated for 30 mins followed by heart infusion broth and glucose addition measured after 120 mins.
The test system of test [2] is L1210. The experiment in a line: Antitumor activity against mouse L1210 cells allografted in mouse assessed as tumor growth inhibition at 0.25 to 32 mg/kg, ip relative to control. The settings on record: dose mg/kg 0.25-32; route intraperitoneal.
Test [3] has as its system Bacillus spizizenii. The experiment in a line: Antibacterial activity against Bacillus subtilis ATCC 6633 at 50 ug/ml by plate assay. The conditions noted are these: read-out: IZ.
The test system of test [4] is Enterobacteria phage lambda. The experiment in a line: Induction of lambda phage production in Escherichia coli W1709 (lambda) assessed as plaque formation at 3.1 ug/ml preincubated for 30 mins followed by heart infusion broth and glucose addition measured after 120 mins relative to control.
The test system of test [5] is L1210. The experiment in a line: Antitumor activity against mouse L1210 cells allografted in mouse assessed as tumor growth inhibition at 0.64 mg/kg, ip relative to control. The settings on record: route intraperitoneal.
The subject of test [6] is Bacillus spizizenii. The experiment in a line: Antibacterial activity against Bacillus subtilis ATCC 6633 at 3.1 ug/ml by plate assay. The settings on record: read-out: IZ.

Turning to `CC(=O)[C@]1(O)Cc2c(O)c3c(c(O)c2[C@@H](S[C@H]2CCC[C@@H](N)C2)C1)C(=O)c1c(O)cccc1C3=O`, the result in test [1] was inactive. Further, the T/C in test [2] is less than 125. Besides, in test [3], the zone of inhibition at 50 µg/mL was 10.3 mm.

With `CC(=O)[C@]1(O)Cc2c(O)c3c(c(O)c2[C@@H](S[C@@H]2CCC[C@@H](N)C2)C1)C(=O)c1c(O)cccc1C3=O`, the outcome in test [1] was inactive. Further, the zone of inhibition at 50 µg/mL in test [3] came to 10.5 mm.

On to `CC(=O)[C@]1(O)Cc2c(O)c3c(c(O)c2[C@@H](O[C@H]2C[C@H](N)[C@H](O)[C@H](C)O2)C1)C(=O)c1c(O)cccc1C3=O` [CARUBICIN], for which the figures for the T/C in test [4] and in test [5] were 6.2 and 157, respectively. Also, the zone of inhibition at 3.1 µg/mL in test [6] worked out at 19 mm.

The values are drawn from ChEMBL document CHEMBL3244189, “Synthesis and antitumor properties of 7-deoxy-7-[(cis- and trans-3-aminocyclohexane)thio]carminomycinone” (1979).
